The test system of this assay is SARS-CoV-2. Nature of the assay: microbe, parasite or virus in culture. The class given is cell-based.
Where [1] appears, read: Severe acute respiratory syndrome coronavirus 2, VeroE6/TMPRSS2.
[2] abbreviates: Severe acute respiratory syndrome coronavirus 2, VeroE6/TMPRSS2, Beta strain (TY8-612).
Setting [3] is: Severe acute respiratory syndrome coronavirus 2, VeroE6/TMPRSS2, Gamma strain (TY7-501).
[4] abbreviates: Severe acute respiratory syndrome coronavirus 2, VeroE6/TMPRSS2, Gamma strain (TY7-503).

pEC50: −log10 of the molar value.

The results in this text go back to patent publication US20250127788A1, “PHARMACEUTICAL COMPOSITION CONTAINING TRIAZINE DERIVATIVE” (Shionogi & Co., Ltd., priority 2021, published 2025).

For orientation: pEC50 means the negative decadic logarithm of the EC50, by convention in mol/L. A low value points to a large EC50. Turning to `Cn1cnc(Cn2c(=O)[nH]/c(=N\c3cc4cn(C)nc4cc3Cl)n(Cc3cc(F)c(F)cc3F)c2=O)n1`, the pEC50 runs as follows: under setting [1], 6.43; under setting [2], 6.40; (Severe acute respiratory syndrome coronavirus 2, VeroE6/TMPRSS2, Delta strain (TY11-927-P1)) 6.39; under setting [3], 6.30; under setting [4], 6.37; (Severe acute respiratory syndrome coronavirus 2, VeroE6/TMPRSS2, Lambda strain (TY33-456)) 6.57. Also, the pEC50 was 6.37 (Severe acute respiratory syndrome coronavirus 2, VeroE6/TMPRSS2, Mu strain (TY26-717)) and 6.54 (Severe acute respiratory syndrome coronavirus 2, VeroE6/TMPRSS2, Theta strain (TY28-444)).
For the compound `Cc1cncc(-n2c(=O)nc(Nc3cc4cn(C)nc4cc3Cl)n(Cc3cc(F)c(F)c(F)c3)c2=O)c1`, the pEC50 runs as follows: under setting [1], 6.92; (Severe acute respiratory syndrome coronavirus 2, VeroE6/TMPRSS2, Alpha strain (QHN001)) 6.85; (Severe acute respiratory syndrome coronavirus 2, VeroE6/TMPRSS2, Alpha strain (QHN002)) 6.89; (Severe acute respiratory syndrome coronavirus 2, VeroE6/TMPRSS2, Alpha strain (QK002)) 6.80; under setting [2], 6.80; under setting [3], 6.66. Moreover, the pEC50 under setting [4] was 6.82.
